Measured values published in patent US6632809B2, “Gyrase inhibitors and uses thereof” (Vertex Pharmaceuticals Incorporated, priority 2000, dated 2003).
Values after ≈ are worked out from the molar mass of the structure shown.

What was measured:
[1] = molecular target: DNA gyrase (374 kDa Gyr A2B2 subunit from Staphylococcus aureus) (Staphylococcus aureus, UniProt P0A0K8); assay: Gyrase ATPase Assay; assay type: biochemical; conditions: 10 μM concentration; ATPase assay at 30° C., 0.9 mM ATP; average of duplicate values; read-out: Gyrase Inhibitory Activity (percent inhibition)
Procedure: The ATP hydrolysis activity of DNA gyrase was measure by coupling the production of ADP through pyruvate kinase/lactate dehydrogenase to the oxidation of NADH. This method has been described previously (Tamura and Gellert, 1990, J. Biol. Chem., 265, 21342).
ATPase assays are carried out at 30° C. in buffered solutions containing 100 mM TRIS pH 7.6, 1.5 mM MgCl2, 50 mM KCl. The coupling system contains (final concentrations) 2.5 mM phosphoenol pyruvate, 200 μM nicotinamide adenine dinucleotide (NADH), 1 mM DTT, […], and 10 ug/ml lactate dehydrogenase. 40 nanomolar enzyme (374 kDa Gyr A2B2 subunit from Staphylococcus aureus) and a DMSO solution of the inhibitor to a final concentration of 4% are added and the reaction mixture is allowed to incubate for 10 minutes at 30° C. The reaction is then started by the addition of ATP to a final concentration of 0.9 mM and the rate of NADH disappearance at 340 nanometers is measured over the course of 10 minutes. The percent inhibition values are determined from rate versus concentration profiles and are reported as the average of duplicate values.
The compound numbers correspond to the compound numbers in Table 1. Compounds having an activity designated as “A” provided a percent inhibition value below 50 percent; compounds having an activity designated as “B” provided a percent inhibition value between 50 and 75 percent; and compounds having an activity designated as “C” provided a percent inhibition value greater than 75 percent.

test bacteria = assay: Susceptibility Testing in Liquid Media (MIC assay); assay type: cell-based; conditions: broth dilution, MHB, 35° C. overnight (16 to 20 hr), organism not given; for MIC: read-out: MIC (minimal inhibitory concentration) activity level
Procedure: Susceptibility Testing in Liquid Media
Compounds of this invention were also tested for antimicrobial activity by susceptibility testing in liquid media. Such assays were performed within the guidelines of the latest NCCLS document governing such practices: “M7-A5 Methods for dilution Antimicrobial Susceptibility Tests for Bacteria that Grow Aerobically; Approved Standard—Fifth Edition (2000)”. Other publications such as “Antibiotics in Laboratory Medicine” (Edited by V. Lorian, Publishers Williams and Wilkins, 1996) provide essential practical techniques in laboratory antibiotic testing. Essentially, several discrete bacterial colonies (3 to 7) from a freshly streaked plate were transferred to an appropriate rich broth medium such as MHB, supplemented where appropriate for the more fastidious organisms. This was grown overnight to high density followed by a 1 or 2-thousand-fold dilution to give an inoculation density of between 5×10^5 and 5×10^6 CFU per mL. Alternatively, the freshly picked colonies can be incubated at 37° C. for about 4 to 8 hrs until the culture equals or exceeds a turbidity of a 0.5 McFarland standard (approximately 1.5×10^8 cells per mL) and diluted to give the same CFU per mL as above. In a more convenient method, the inoculum was prepared using a commercially available mechanical device (the BBL PROMPT System) that involves touching five colonies directly with a wand, containing crosshatch grooves at its bottom, followed by suspension of the bacteria in an appropriate volume of saline. Dilution to the appropriate inoculum cell density was made from this cell suspension. The broth used for testing consists of MHB supplemented with 50 mg per L of Ca^2+ and 25 mg per L of Mg^2+. Standard dilution panels of control antibiotics were made and stored as in the NCCLS standard M7-A5, the dilution range typically being in the 128 μg per mL to 0.015 μg per mL (by 2-fold serial dilution). The test compounds were dissolved and diluted fresh for experimentation on the same day; the same or similar ranges of concentration as above being used. The test compounds and controls were dispensed into a multiwell plate and test bacteria added such that the final inoculation was approximately 5×10^4 CFU per well and the final volume was 100 μL. The plates were incubated at 35° C. overnight (16 to 20 hr) and checked by eye for turbidity or quantitated with a multiwell plate reader. […] Such determinations were also compared to the appropriate tables contained in the above two publications to ensure that the range of antibacterial activity is within the acceptable range for this standardized assay.
The compound numbers correspond to the compound numbers in Table 1.

Chain of DNA gyrase (374 kDa Gyr A2B2 subunit from Staphylococcus aureus) (P0A0K8 whole entry): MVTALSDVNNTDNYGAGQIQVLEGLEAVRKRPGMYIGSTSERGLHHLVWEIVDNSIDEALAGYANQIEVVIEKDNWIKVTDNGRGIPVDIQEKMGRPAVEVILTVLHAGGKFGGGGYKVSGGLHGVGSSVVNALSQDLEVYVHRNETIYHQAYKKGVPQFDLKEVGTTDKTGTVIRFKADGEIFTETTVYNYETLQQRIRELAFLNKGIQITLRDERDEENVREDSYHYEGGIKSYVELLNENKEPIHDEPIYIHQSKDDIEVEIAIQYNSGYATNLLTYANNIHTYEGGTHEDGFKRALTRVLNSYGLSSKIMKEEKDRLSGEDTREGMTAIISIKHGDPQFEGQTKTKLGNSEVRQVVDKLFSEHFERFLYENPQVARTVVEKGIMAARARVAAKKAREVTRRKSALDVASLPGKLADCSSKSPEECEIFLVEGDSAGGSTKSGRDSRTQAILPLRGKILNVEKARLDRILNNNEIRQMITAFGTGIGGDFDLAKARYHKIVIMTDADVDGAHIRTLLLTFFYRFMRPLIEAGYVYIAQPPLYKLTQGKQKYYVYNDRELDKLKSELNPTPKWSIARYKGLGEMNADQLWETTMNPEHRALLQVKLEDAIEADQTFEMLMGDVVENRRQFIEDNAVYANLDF
Chain of DNA gyrase (374 kDa Gyr A2B2 subunit from Staphylococcus aureus) (P20831 whole entry, further chain): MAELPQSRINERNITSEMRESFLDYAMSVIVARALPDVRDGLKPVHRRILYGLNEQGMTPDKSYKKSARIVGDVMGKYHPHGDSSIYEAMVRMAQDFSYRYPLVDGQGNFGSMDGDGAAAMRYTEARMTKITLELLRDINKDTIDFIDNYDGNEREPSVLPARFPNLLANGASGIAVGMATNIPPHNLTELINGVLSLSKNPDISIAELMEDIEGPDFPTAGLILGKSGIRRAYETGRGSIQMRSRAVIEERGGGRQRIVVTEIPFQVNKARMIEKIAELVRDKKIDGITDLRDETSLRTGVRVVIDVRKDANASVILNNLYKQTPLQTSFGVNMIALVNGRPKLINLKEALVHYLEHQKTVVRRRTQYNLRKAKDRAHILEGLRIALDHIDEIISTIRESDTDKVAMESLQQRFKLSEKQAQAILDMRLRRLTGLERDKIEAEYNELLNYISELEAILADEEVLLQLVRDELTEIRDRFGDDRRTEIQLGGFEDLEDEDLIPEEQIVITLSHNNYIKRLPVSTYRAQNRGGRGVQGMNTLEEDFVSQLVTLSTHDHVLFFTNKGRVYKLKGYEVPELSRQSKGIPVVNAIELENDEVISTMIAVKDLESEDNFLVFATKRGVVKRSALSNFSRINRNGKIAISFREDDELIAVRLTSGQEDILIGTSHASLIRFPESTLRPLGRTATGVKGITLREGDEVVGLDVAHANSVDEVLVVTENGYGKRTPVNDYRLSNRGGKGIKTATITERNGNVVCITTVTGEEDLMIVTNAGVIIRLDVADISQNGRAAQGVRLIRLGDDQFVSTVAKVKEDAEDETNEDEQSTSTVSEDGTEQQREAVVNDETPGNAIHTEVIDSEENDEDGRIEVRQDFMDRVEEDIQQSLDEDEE

SMILES | inhibition at 10 µM [1] | MIC (test bacteria) | MIC (minimal inhibitory concentration) activity level (test bacteria)
CCNC(=O)Nc1nc2cc(-c3ccc(CNC(C)=O)cc3)ccc2[nH]1 [Ia-139] | > 75% | > 40 µg/mL | 
CCNC(=O)Nc1nc2cc(-c3cnc(OC(C)COC)nc3)c(OC)cc2[nH]1 (centres unmarked) [Ia-140] | > 75% | < 10 µg/mL | 
CCNC(=O)Nc1nc2cc(-c3cnc(NC(C)COC)nc3)cc(C)c2[nH]1 (centres unmarked) [Ia-141] | > 75% | < 10 µg/mL | 
CCNC(=O)Nc1nc2cc(-c3cccnc3)c(C)c(C)c2[nH]1 [Ia-142] | > 75% | < 10 µg/mL | 
CCNC(=O)Nc1nc2cc(-c3ccc(CN)nc3)ccc2[nH]1 [Ia-144] | > 75% | 10 to 40 µg/mL (≈ 32.2 to 129 µM) | 
CCNC(=O)Nc1nc2cc(-c3ccc(CNC(C)=O)nc3)ccc2[nH]1 [Ia-145] | > 75% | 10 to 40 µg/mL (≈ 28.4 to 114 µM) | 
CCNC(=O)Nc1nc2cc(-c3cnc(NC(C)COC)nc3)c(OC)cc2[nH]1 (centres unmarked) [Ia-146] | > 75% | < 10 µg/mL | 
CCNC(=O)Nc1nc2cc(-c3cccnc3)c(OC)c(C)c2[nH]1 [Ia-147] | 50 to 75% | > 40 µg/mL | 
CCNC(=O)Nc1nc2cc(-c3ccc(CNC(=O)OC(C)(C)C)nc3)ccc2[nH]1 [Ia-148] | > 75% | 10 to 40 µg/mL (≈ 24.4 to 97.4 µM) | 
CCNC(=O)Nc1nc2cc(-c3cccnc3)c(OCCOC)c(C)c2[nH]1 [Ia-149] | > 75% | > 40 µg/mL | 
CCNC(=O)Nc1nc2cc(-c3nnc(C)o3)ccc2[nH]1 [Ia-150] | 50 to 75% | > 40 µg/mL | 
CCNC(=O)Nc1nc2cc(-c3nnco3)ccc2[nH]1 [Ia-151] | > 75% | > 40 µg/mL | 
CCNC(=O)Nc1nc2cc(-c3cccc(F)c3F)ccc2[nH]1 [Ia-152] | > 75% | 10 to 40 µg/mL (≈ 31.6 to 126 µM) | 
CCNC(=O)Nc1nc2cc(-c3cccnc3)c3c(c2[nH]1)OC(F)(F)O3 [Ia-153] | 50 to 75% | > 40 µg/mL | 
CCNC(=O)Nc1nc2cc(-c3ccc(CNS(C)(=O)=O)nc3)ccc2[nH]1 [Ia-154] | > 75% | > 40 µg/mL | 
CCNC(=O)Nc1nc2cc(-n3cnc(C(=O)OC)c3)ccc2[nH]1 [Ia-156, 1-[2-(3-Ethyl-ureido)-3H-benzoimidazol-5-yl]-1H-imiazole-4-carboxylic acid methyl ester] | > 75% | 10 to 40 µg/mL (≈ 30.5 to 122 µM) | 
CCNC(=O)Nc1nc2cc(-n3cnc(C(=O)O)c3)ccc2[nH]1 [Ia-157, 1-[2-(3-Ethyl-ureido)-3H-benzoimidazol-5-yl]-1H-imidazole-4-carboxylic acid] | > 75% | > 40 µg/mL | 
CCNC(=O)Nc1nc2cc(-c3cccc(=O)[nH]3)ccc2[nH]1 [Ia-158] | > 75% | > 40 µg/mL | 
CC(C)CNC(=O)Nc1nc2cc(-c3ccc(F)nc3)ccc2[nH]1 [Ia-159] | < 50% | > 40 µg/mL | 
CCNC(=O)Nc1nc2cc(-n3ccc(=O)c(OCc4ccccc4)c3C)ccc2[nH]1 [Ia-160] | > 75% | > 40 µg/mL | 
CCNC(=O)Nc1nc2cc(-n3ccc(=O)c(O)c3C)ccc2[nH]1 [Ia-161] | < 50% | > 40 µg/mL | 
CCNC(=O)Nc1nc2cc(-n3cc(C(=O)O)cn3)ccc2[nH]1 [Ia-162] | > 75% | > 40 µg/mL | 

SMILES | inhibition at 10 µM [1] | MIC (test bacteria) | MIC (minimal inhibitory concentration) activity level (test bacteria)
CCNC(=O)Nc1nc2cc(-c3ccc(OCC)nc3)ccc2[nH]1 [Ia-163] | > 75% | < 10 µg/mL | 
CCNC(=O)Nc1nc2cc(-c3cccnc3)c(N3CCOCC3)cc2[nH]1 [Ia-164] | > 75% | > 40 µg/mL | 
CCNC(=O)Nc1nc2cc(-c3ccccc3O)ccc2[nH]1 [Ia-165] | > 75% | 10 to 40 µg/mL (≈ 33.7 to 135 µM) | 
CCNC(=O)Nc1nc2cc(-c3ccc(N4CCOCC4)nc3)ccc2[nH]1 [Ia-166] | > 75% | > 40 µg/mL | 
CCNC(=O)Nc1nc2cc(-c3cccnc3)cc(O)c2[nH]1 [Ia-167] | > 75% |  | C (provided an MIC of greater than 40 μg/mL)
CCNC(=O)Nc1nc2cc(-c3cccnc3)cc(OCc3ccccc3)c2[nH]1 [Ia-168] | > 75% | < 10 µg/mL | 
CCNC(=O)Nc1nc2cc(-n3cnc(C(=O)N4CCOCC4)c3)ccc2[nH]1 [Ia-170] | > 75% | > 40 µg/mL | 
CCNC(=O)Nc1nc2cc(-n3cnc(C(=O)NCc4cccnc4)c3)ccc2[nH]1 [Ia-171] | > 75% | 10 to 40 µg/mL (≈ 24.7 to 98.9 µM) | 
CCNC(=O)Nc1nc2cc(-n3cc(C(=O)NCC(C)C)cn3)ccc2[nH]1 [Ia-173] | > 75% | 10 to 40 µg/mL (≈ 27.1 to 108 µM) | 
CCNC(=O)Nc1nc2cc(-n3cc(C(=O)NCc4cccnc4)cn3)ccc2[nH]1 [Ia-174] | > 75% | > 40 µg/mL | 
CCNC(=O)Nc1nc2cc(-c3ccc(N4CCCCC4)nc3)ccc2[nH]1 [Ia-175] | > 75% | > 40 µg/mL | 
CCNC(=O)Nc1nc2cc(-c3ccc(N4CCCC4)nc3)ccc2[nH]1 [Ia-177] | > 75% | > 40 µg/mL | 
CCNC(=O)Nc1nc2cc(-c3cccnc3)c(N3CCCCC3)cc2[nH]1 [Ia-178] | > 75% | < 10 µg/mL | 
CCNC(=O)Nc1nc2cc(-c3ccc(N4CCC(O)C4)nc3)ccc2[nH]1 (centres unmarked) [Ia-179] | > 75% | > 40 µg/mL | 
CCNC(=O)Nc1nc2cc(-c3cccnc3)c(N3CCCC3)cc2[nH]1 [Ia-180] | > 75% | 10 to 40 µg/mL (≈ 28.5 to 114 µM) | 
CCNC(=O)Nc1nc2cc(-c3occc(=O)c3O)ccc2[nH]1 [Ia-181] | 50 to 75% | > 40 µg/mL | 
C=CCCCOc1ccc(-c2ccc3[nH]c(NC(=O)NCC)nc3c2)cn1 [Ia-182] | > 75% | > 40 µg/mL | 
CCNC(=O)Nc1nc2cc(-c3cccnc3)c(OC)c(F)c2[nH]1 [Ia-183] | 50 to 75% | > 40 µg/mL | 
CCNC(=O)Nc1nc2nc(-n3cnc(C(=O)OC)c3)ccc2[nH]1 [Ia-184] | 50 to 75% | > 40 µg/mL | 
CCNC(=O)Nc1nc2nc(-n3cnc(C(=O)O)c3)ccc2[nH]1 [Ia-185] | > 75% | > 40 µg/mL | 
CCCCNC(=O)c1cn(-c2ccc3[nH]c(NC(=O)NCC)nc3c2)cn1 [Ia-186] | > 75% | < 10 µg/mL | 
